# From PubChem BioAssay AID192 (DTP/NCI, 2004)
# Where “and” joins values, the source holds several entries; their conditions need not be identical. Identical values can stand only once. Inconclusive results and toxic doses are left out.
# Test system: BDF1 mice, B16 melanoma ip, median survival T/C
# Experiment: NCI In Vivo Anticancer Drug Screen. Data for tumor model B16 Melanoma (intraperitoneal) in B6D2F1 (BDF1) mice
# Conditions: endpoint: median survival time, higher = longer survival
# Method: The antitumor activity of compounds was measured in mice bearing transplantable tumors. Survival or tumor size were measured and the results are expressed as the measurement made in the treated group (T) divided by the measurement made in the vehicle treated control group (C). The tumor model used in this assay is B16 Melanoma (intraperitoneal) in B6D2F1 (BDF1) mice
# [1] = dose: 3.12 mg/kg/injection, schedule: Q01DX009 (ip), vehicle: saline
# [2] = dose: 6.25 mg/kg/injection, schedule: Q01DX009 (ip), vehicle: saline
# [3] = dose: 12.5 mg/kg/injection, schedule: Q01DX009 (ip), vehicle: saline
# [4] = dose: 25.0 mg/kg/injection, schedule: Q01DX009 (ip), vehicle: saline
# [5] = dose: 50.0 mg/kg/injection, schedule: Q01DX009 (ip), vehicle: saline
# [6] = dose: 6.25 mg/kg/injection, schedule: Q01DX009 (ip), vehicle: saline with Tween-80
# [7] = dose: 400.0 mg/kg/injection, schedule: Q01DX009 (ip), vehicle: Klucel (hydroxypropylcellulose) (HPC)
# [8] = dose: 1.0 mg/kg/injection, schedule: Q01DX009 (ip), vehicle: saline
# [9] = dose: 25.0 mg/kg/injection, schedule: Q01DX009 (ip), vehicle: saline with Tween-80
# [10] = dose: 50.0 mg/kg/injection, schedule: Q01DX009 (ip), vehicle: saline with Tween-80
# [11] = dose: 100.0 mg/kg/injection, schedule: Q01DX009 (ip), vehicle: saline with Tween-80
# [12] = dose: 12.5 mg/kg/injection, schedule: Q01DX009 (ip), vehicle: saline with Tween-80
compound,measurement,setting,value
COC(=O)C(c1ccccc1)C1CCCCN1 (centres undefined),T/C,[1],97 % of control
same,T/C,[2],100 % of control
same,T/C,[3],88 % of control
same,T/C,[4],88 % of control
same,T/C,[5],97 % of control
C=C1C(=O)C23[C@H](O)C1CC[C@H]2[C@]12COC3(O)[C@@H](O)[C@@H]1C(C)(C)CC[C@@H]2O,T/C,"dose: 1.56 mg/kg/injection, schedule: Q01DX009 (ip), vehicle: saline with Tween-80",105 % of control
same,T/C,"dose: 3.12 mg/kg/injection, schedule: Q01DX009 (ip), vehicle: saline with Tween-80",93 % of control
same,T/C,[6],96 % of control
CCC(N)CC,T/C,[4],102 % of control
same,T/C,[5],117 % of control
Cc1ccc(S(=O)(=O)N2CCC(O)(c3ccccc3)CC2)cc1,T/C,"dose: 20.0 mg/kg/injection, schedule: Q01DX009 (ip), vehicle: Klucel (hydroxypropylcellulose) (HPC)",87 % of control
same,T/C,"dose: 100.0 mg/kg/injection, schedule: Q04DX003 (ip), vehicle: Klucel (hydroxypropylcellulose) (HPC)",95 % of control
same,T/C,"dose: 200.0 mg/kg/injection, schedule: Q04DX003 (ip), vehicle: Klucel (hydroxypropylcellulose) (HPC)",91 % of control
same,T/C,[7],119 % of control
same,T/C,"dose: 400.0 mg/kg/injection, schedule: Q04DX003 (ip), vehicle: Klucel (hydroxypropylcellulose) (HPC)",97 % of control
Oc1cc(N2CC2)c(O)cc1N1CC1,T/C,"dose: 0.22 mg/kg/injection, schedule: Q01DX009 (ip), vehicle: saline",123 % of control
same,T/C,"dose: 0.44 mg/kg/injection, schedule: Q01DX009 (ip), vehicle: saline",188 % of control
same,T/C,"dose: 0.68 mg/kg/injection, schedule: Q01DX009 (ip), vehicle: saline",156 % of control and 159 % of control
CNC1C(OC2C(OC3C(O)C(O)C(N=C(N)N)C(O)C3N=C(N)N)OC(C)C2(O)C=O)OC(CO)C(O)C1O (centres undefined),T/C,"dose: 100.0 mg/kg/injection, schedule: Q01DX009 (ip), vehicle: water",110 % of control
same,T/C,"dose: 200.0 mg/kg/injection, schedule: Q01DX009 (ip), vehicle: water",108 % of control
CC1(C)C(=O)NC(=O)C1(C)C,T/C,[2],92 % of control
same,T/C,[3],96 % of control
same,T/C,[4],95 % of control
same,T/C,[5],90 % of control
CN(C)C1=C(N2CC2)C(=O)C(N(C)C)=C(N2CC2)C1=O,T/C,"dose: 0.12 mg/kg/injection, schedule: Q01DX009 (ip), vehicle: saline",106 % of control
same,T/C,"dose: 0.25 mg/kg/injection, schedule: Q01DX009 (ip), vehicle: saline",112 % of control
same,T/C,"dose: 0.5 mg/kg/injection, schedule: Q01DX009 (ip), vehicle: saline",93 % of control
same,T/C,[8],112 % of control
C/C=C1/C[C@@H](C)[C@@](C)(O)C(=O)OCC2=CC[N+]3([O-])CC[C@@H](OC1=O)[C@@H]23 (some centres undefined),T/C,"dose: 10.0 mg/kg/injection, schedule: Q01DX009 (ip), vehicle: saline",102 % of control
same,T/C,"dose: 20.0 mg/kg/injection, schedule: Q01DX009 (ip), vehicle: saline",106 % of control
same,T/C,"dose: 40.0 mg/kg/injection, schedule: Q01DX009 (ip), vehicle: saline",113 % of control
same,T/C,"dose: 80.0 mg/kg/injection, schedule: Q01DX009 (ip), vehicle: saline",102 % of control
O=C(COc1ccc(Cl)cc1)Nc1ccc(Cl)cc1,T/C,[9],90 % of control
same,T/C,[10],92 % of control
same,T/C,[11],92 % of control
COc1ccc(CSC(=S)NNc2ccccc2)cc1,T/C,"dose: 100.0 mg/kg/injection, schedule: Q01DX009 (ip), vehicle: Klucel (hydroxypropylcellulose) (HPC)",107 % of control
same,T/C,"dose: 200.0 mg/kg/injection, schedule: Q01DX009 (ip), vehicle: Klucel (hydroxypropylcellulose) (HPC)",103 % of control
same,T/C,[7],106 % of control
CC1CCCC(C)N1C1=NCCO1 (centres undefined),T/C,"dose: 5.0 mg/kg/injection, schedule: Q01DX009 (ip), vehicle: saline with Tween-80",100 % of control
same,T/C,"dose: 5.0 mg/kg/injection, schedule: Q04DX003 (ip), vehicle: saline with Tween-80",100 % of control
same,T/C,"dose: 10.0 mg/kg/injection, schedule: Q01DX009 (ip), vehicle: saline with Tween-80",112 % of control
same,T/C,"dose: 10.0 mg/kg/injection, schedule: Q04DX003 (ip), vehicle: saline with Tween-80",97 % of control
same,T/C,"dose: 20.0 mg/kg/injection, schedule: Q01DX009 (ip), vehicle: saline with Tween-80",92 % of control
same,T/C,"dose: 20.0 mg/kg/injection, schedule: Q04DX003 (ip), vehicle: saline with Tween-80",100 % of control
NC(=S)Nc1cccc2ccccc12,T/C,[6],99 % of control
same,T/C,[12],95 % of control
same,T/C,[9],97 % of control
Cn1c(N)c(N=Nc2ccccc2Cl)c(=O)n(C)c1=O,T/C,[2],110 % of control
same,T/C,[3],105 % of control
same,T/C,[4],104 % of control
same,T/C,[10],86 % of control
same,T/C,[5],110 % of control
CN(C)NCCC#N,T/C,"dose: 33.0 mg/kg/injection, schedule: Q01DX009 (ip), vehicle: saline",101 % of control
same,T/C,[5],104 % of control
same,T/C,"dose: 75.0 mg/kg/injection, schedule: Q01DX009 (ip), vehicle: saline",104 % of control and 206 % of control
same,T/C,"dose: 113.0 mg/kg/injection, schedule: Q01DX009 (ip), vehicle: saline",100 % of control
Cc1cc(N(CC(C)Br)CC(C)Br)ccc1N=Nc1ccccc1C(=O)O (centres undefined),T/C,[12],165 % of control and 185 % of control
O=C(C=C(C(F)(F)F)C(F)(F)F)c1cccc([N+](=O)[O-])c1,T/C,"dose: 0.2 mg/kg/injection, schedule: Q01DX009 (ip), vehicle: saline",95 % of control
same,T/C,"dose: 0.4 mg/kg/injection, schedule: Q01DX009 (ip), vehicle: saline",102 % of control
same,T/C,"dose: 0.8 mg/kg/injection, schedule: Q01DX009 (ip), vehicle: saline",95 % of control
same,T/C,[6],86 % of control
same,T/C,"dose: 6.25 mg/kg/injection, schedule: Q04DX003 (ip), vehicle: saline with Tween-80",113 % of control
same,T/C,"dose: 25.0 mg/kg/injection, schedule: Q04DX003 (ip), vehicle: saline with Tween-80",111 % of control
CS(=O)(=O)Nc1ccccc1N,T/C,"dose: 1.56 mg/kg/injection, schedule: Q01DX009 (ip), vehicle: saline",95 % of control
same,T/C,[1],99 % of control
same,T/C,[2],98 % of control
C1CN1P1(N2CC2)=NP(N2CC2)(N2CC2)=NP(N2CC2)(N2CC2)=NP(N2CC2)(N2CC2)=N1,T/C,[8],105 % of control
same,T/C,"dose: 1.0 mg/kg/injection, schedule: Q02DX009 (ip), vehicle: saline",88 % of control
same,T/C,"dose: 2.0 mg/kg/injection, schedule: Q01DX009 (ip), vehicle: saline",116 % of control
same,T/C,"dose: 2.0 mg/kg/injection, schedule: Q02DX009 (ip), vehicle: saline",95 % of control and 105 % of control
same,T/C,"dose: 4.0 mg/kg/injection, schedule: Q01DX009 (ip), vehicle: saline",120 % of control
same,T/C,"dose: 4.0 mg/kg/injection, schedule: Q02DX009 (ip), vehicle: saline",87 % of control and 90 % of control
same,T/C,"dose: 8.0 mg/kg/injection, schedule: Q01DX009 (ip), vehicle: saline",108 % of control
same,T/C,"dose: 8.0 mg/kg/injection, schedule: Q02DX009 (ip), vehicle: saline",100 % of control
same,T/C,"dose: 16.0 mg/kg/injection, schedule: Q01DX009 (ip), vehicle: saline",93 % of control
same,T/C,"dose: 16.0 mg/kg/injection, schedule: Q02DX009 (ip), vehicle: saline",98 % of control and 100 % of control
same,T/C,"dose: 32.0 mg/kg/injection, schedule: Q01DX009 (ip), vehicle: saline",97 % of control
same,T/C,"dose: 32.0 mg/kg/injection, schedule: Q02DX009 (ip), vehicle: saline",87 % of control and 100 % of control
same,T/C,"dose: 64.0 mg/kg/injection, schedule: Q01DX009 (ip), vehicle: saline",108 % of control
same,T/C,"dose: 64.0 mg/kg/injection, schedule: Q02DX009 (ip), vehicle: saline",87 % of control and 94 % of control
COc1cc(/C=C(/C)[N+](=O)[O-])ccc1O,T/C,"dose: 50.0 mg/kg/injection, schedule: Q01DX009 (ip), vehicle: carboxymethylcellulose (CMC)",121 % of control
same,T/C,"dose: 100.0 mg/kg/injection, schedule: Q01DX009 (ip), vehicle: carboxymethylcellulose (CMC)",102 % of control
CC1(C)N=C(N)N=C(N)N1c1cc(Cl)c(Cl)cc1Cl,T/C,"dose: 12.5 mg/kg/injection, schedule: Q01DX009 (ip), vehicle: Klucel (hydroxypropylcellulose) (HPC)",94 % of control
same,T/C,"dose: 25.0 mg/kg/injection, schedule: Q01DX009 (ip), vehicle: Klucel (hydroxypropylcellulose) (HPC)",99 % of control
O=C(CCl)Oc1cccc([N+](=O)[O-])c1,T/C,[9],107 % of control
same,T/C,[10],102 % of control
same,T/C,[11],101 % of control
C1CN2CN3CCN(CN1C3)C2,T/C,[3],99 % of control and 114 % of control
same,T/C,[4],103 % of control and 113 % of control
same,T/C,[5],123 % of control
COC1=NCN=C2SC=C(N)N=C12,T/C,"dose: 3.13 mg/kg/injection, schedule: Q01DX009 (ip), vehicle: saline",105 % of control
same,T/C,[2],100 % of control and 109 % of control
same,T/C,[3],96 % of control and 98 % of control
same,T/C,[5],98 % of control and 100 % of control
